Experimental data published in patent US12419871B2, “Biomolecules involved in Alzheimer's disease” (ELECTROPHORETICS LIMITED, priority 2015, dated 2025).
Values joined by “and” are separate entries in the source; they are usually repeats but may differ in a detail not shown here. Equal entries are not always repeated. “Also recorded” adds a separate entry of the source.

System: TMHT (Thy-1 Mutated Human Tau) mice
Assay: SysQuant analysis of protein and phosphorylation changes in brains of TMHT mice treated with CK1d inhibitors
Format: in vivo, mouse
Details: for Mouse brain Log 2 Ck1 inhibitor: 2′,3′-cyclic-nucleotide 3′-phosphodiesterase / Mouse brain Log 2 Ck1 inhibitor: phosphatase 1 regulatory subunit 14A / effect of treatment on protein phosphatase 1 regulatory subunit 14A level in mouse brain (in words) / effect of treatment on 2′,3′-cyclic-nucleotide 3′-phosphodiesterase level in mouse brain (in words): 30 mg/kg; for effect of treatment on protein phosphatase 1 regulatory subunit 14A level in mouse brain (in words) / effect of treatment on 2′,3′-cyclic-nucleotide 3′-phosphodiesterase level in mouse brain (in words): TMHT model, treated orally 30 mg/kg; for effect of treatment on protein phosphatase 1 regulatory subunit 14A level in mouse brain (in words): versus vehicle alone (FIG. 5B); for effect of treatment on 2′,3′-cyclic-nucleotide 3′-phosphodiesterase level in mouse brain (in words): versus vehicle alone (FIG. 6B); for number of human tau peptides significantly (p<0.05) regulated in the hippocampi of treated mice: of 124 unique quantified peptides from human tau, 30 mg/kg orally
Protocol: Starting at 8.5 months (±2 weeks) of age, TMHT mice received CK1d inhibitors 2-Methyl-amino-3-[(4-fluorophenyl)carbonyl]indolizine-1-carboxamide (PS278-05), 5-(1,3-benzoxazol-2-yl)-4-(pyridine-4-yl)pyrimidin-2-amine (PS110), compound PF4800567 (3-[(3-Chlorophenoxy)methyl]-1-(tetrahydro-2H-pyran-4-yl)-1H-pyrazolo[3,4-d]pyrimidin-4-amine; Tocris®) or vehicle (0.5% w/v methylcellulose) for 8 weeks (54 applications) at a dosage of 30 mg/kg body weight, orally via gavage.
In total 48 animals were used and allocated to 4 treatment groups.
Brain samples were collected within 10 minutes of euthanasia, washed in ice cold saline, transferred to a clean Eppendorf tube and immediately frozen in liquid nitrogen.
One hippocampus sample (left or right) from each of three animals in each of the vehicle, PS110 and PS278-05 groups were selected for analysis by SysQuant. A pool of all nine samples was also prepared as a reference channel. All TMT® labelling, mixing and mass spectrometry and bioinformatics studies were performed essentially as described in Section 4.1. For peptide and protein identification the UniProtKB mouse database was used, supplemented by inclusion of all human tau isoform entries.
All protein identification, peptide sequence, phosphorylation site information along with quantitative values and biological information relating to the peptide, protein and phosphorylation sites were assembled in a Microsoft Excel file (QuantSheet) to allow structured data analysis based on fold-change, significance, biological function and cellular localisation.
Similarly, the expression levels of total tau and for each phosphorylated serine, threonine and tyrosine amino acid in mouse brains following treatment with vehicle control or the CK1d inhibitors PS278-05 and PS110 were calculated.
All peptides that matched the human MAPT (P10636; SEQ ID NO:29) UniProt sequence and/or the mouse MAPT (P10637) were exported into a separate Microsoft Excel sheet. Ion intensity values for each phosphopeptide were summed and the average calculated for each treatment group (Vehicle control, PS110, PS278-05).

[1] = TMHT mice, hippocampus, 30 mg/kg orally via gavage, 8 weeks

NC(=O)c1c(N)c(C(=O)c2ccc(F)cc2)n2ccccc12 [PS278, 2-amino-3-[(4-fluorophenyl)carbonyl]indolizine-1-carboxamide]
Mouse brain Log 2 Ck1 inhibitor: BH3-interacting domain death agonist [1]: −0.56
Mouse brain Log 2 Ck1 inhibitor: Catenin delta-1 [1]: −1.07
Mouse brain Log 2 Ck1 inhibitor: Centrosomal protein of 170 kDa [1]: −0.51
Mouse brain Log 2 Ck1 inhibitor: Clathrin light chain B [1]: 0.50
Mouse brain Log 2 Ck1 inhibitor: Egl nine homolog 1 [1]: -0.73
Mouse brain Log 2 Ck1 inhibitor: Guanine nucleotide-binding protein G(q) subunit alpha [1]: 0.62
Mouse brain Log 2 Ck1 inhibitor: Lambda-crystallin homolog [1]: 0.56
Mouse brain Log 2 Ck1 inhibitor: Myelin-associated oligodendrocyte basic protein [1]: 0.66
Mouse brain Log 2 Ck1 inhibitor: Neutral alpha-glucosidase AB [1]: −0.78
Mouse brain Log 2 Ck1 inhibitor: OCIA domain-containing protein 1 [1]: −0.59
Mouse brain Log 2 Ck1 inhibitor: Secernin-2 [1]: −0.52
Mouse brain Log 2 Ck1 inhibitor: Short-chain specific acyl-CoA dehydrogenase, mitochondrial [1]: 0.57
Mouse brain Log 2 Ck1 inhibitor: Synaptoporin [1]: 0.72
Mouse brain Log 2 Ck1 inhibitor: Syntaphilin [1]: −0.76
Mouse brain Log 2 Ck1 inhibitor: Transmembrane protein 119 [1]: −0.52
Mouse brain Log 2 Ck1 inhibitor: Tubulin alpha chain-like 3 [1]: 0.67
Mouse brain Log 2 Ck1 inhibitor: 2′,3′-cyclic-nucleotide 3′-phosphodiesterase [1]: 0.62 and 0.63
Mouse brain Log 2 Ck1 inhibitor: phosphatase 1 regulatory subunit 14A [1]: 0.49 and 0.71

Nc1ncc(-c2nc3ccccc3o2)c(-c2ccncc2)n1 [PS110, 5-(1,3-benzoxazol-2-yl)-4-(pyridin-4-yl)pyrimidin-2-amine]
Mouse brain Log 2 Ck1 inhibitor: Actin, alpha cardiac muscle 1 [1]: 0.58
Mouse brain Log 2 Ck1 inhibitor: Antithrombin-III [1]: 0.57
Mouse brain Log 2 Ck1 inhibitor: BH3-interacting domain death agonist [1]: −0.53
Mouse brain Log 2 Ck1 inhibitor: Catenin delta-1 [1]: −2.26
Mouse brain Log 2 Ck1 inhibitor: Clathrin light chain B [1]: 0.70
Mouse brain Log 2 Ck1 inhibitor: Fibrinogen gamma chain [1]: 1.01
Mouse brain Log 2 Ck1 inhibitor: GMP reductase 1 [1]: 0.68
Mouse brain Log 2 Ck1 inhibitor: Guanine nucleotide-binding protein G(q) subunit alpha [1]: 0.82
Mouse brain Log 2 Ck1 inhibitor: Insulin-like growth factor-binding protein [1]: −0.53
Mouse brain Log 2 Ck1 inhibitor: KxDL motif-containing protein 1 [1]: −0.58
Mouse brain Log 2 Ck1 inhibitor: Myelin-associated oligodendrocyte basic protein [1]: 0.84
Mouse brain Log 2 Ck1 inhibitor: Neutral alpha-glucosidase AB [1]: 0.52
Mouse brain Log 2 Ck1 inhibitor: Nuclear pore complex protein Nup155 [1]: −0.53
Mouse brain Log 2 Ck1 inhibitor: Protein KIAA1045 [1]: −0.63
Mouse brain Log 2 Ck1 inhibitor: Secernin-2 [1]: −0.76
Mouse brain Log 2 Ck1 inhibitor: Serum albumin [1]: 0.69
Mouse brain Log 2 Ck1 inhibitor: Short-chain specific acyl-CoA dehydrogenase, mitochondrial [1]: 0.54
Mouse brain Log 2 Ck1 inhibitor: Syntaphilin [1]: −0.71
Mouse brain Log 2 Ck1 inhibitor: Transmembrane protein 119 [1]: −0.66
Mouse brain Log 2 Ck1 inhibitor: cAMP-dependent protein kinase type 1 [1]: 0.53
Mouse brain Log 2 Ck1 inhibitor: 2′,3′-cyclic-nucleotide 3′-phosphodiesterase [1]: 0.63 and 0.57
Mouse brain Log 2 Ck1 inhibitor: phosphatase 1 regulatory subunit 14A [1]: 0.71 and 0.69
effect of treatment on protein phosphatase 1 regulatory subunit 14A level in mouse brain (in words): altering the concentration or amount; also recorded: upregulated
effect of treatment on protein phosphatase 1 regulatory subunit 14A level in mouse brain (in words) (listed as 5-(1,3-benzoxazol-2-yl)-4-(pyridine-4-yl)pyrimidin-2-amine): up-regulation
effect of treatment on 2′,3′-cyclic-nucleotide 3′-phosphodiesterase level in mouse brain (in words): altering the concentration or amount; also recorded: upregulated
number of human tau peptides significantly (p<0.05) regulated in the hippocampi of treated mice (TMHT mice, 8 weeks): 37

CNc1c(C(N)=O)c2ccccn2c1C(=O)c1ccc(F)cc1 [PS278-05, 2-Methyl-amino-3-[(4-fluorophenyl)carbonyl]indolizine-1-carboxamide]
effect of treatment on protein phosphatase 1 regulatory subunit 14A level in mouse brain (in words): up-regulation; also recorded: altering the concentration or amount; also recorded: upregulated
effect of treatment on 2′,3′-cyclic-nucleotide 3′-phosphodiesterase level in mouse brain (in words): altering the concentration or amount; also recorded: upregulated
number of human tau peptides significantly (p<0.05) regulated in the hippocampi of treated mice (TMHT mice, 8 weeks): 22
